The format of the data set is physicochemical. The method, then: The specific experimental method was as follows. […] The chloroform solution was mixed with 0.5 ml of chloroform, from which 0.5 ml of diluent was taken and two-fold serial dilution was performed by using chloroform. Then 0.5 ml of a chloroform solution of paclitaxel (10 mg/ml) was added to the above-mentioned sample after the two-fold serial dilution, and then left in a hood to be naturally volatilized overnight. Crystal formation in the dried sample was observed and recorded.

Consider one substance from patent publication US20220111056A1, “DRUG-LOADED EMULSION” (ZHEJIANG ZHIDA PHARMACEUTICAL CO., LTD., priority 2019, published 2022).

As to castor oil, the “solubility of paclitaxel (crystal formation)” value is listed as “+”.
